Reference: ChEMBL document CHEMBL3217638, “Synthetic modulators of the retinoic acid receptor-related orphan receptors” (Medchemcomm, 2013)
One block for each molecule: values may come before it.

Legend:
[1] = molecular target: T1, Nuclear receptor ROR-gamma (Mus musculus) (UniProt P51450); details: CHO-K1
T1 sequence (whole entry): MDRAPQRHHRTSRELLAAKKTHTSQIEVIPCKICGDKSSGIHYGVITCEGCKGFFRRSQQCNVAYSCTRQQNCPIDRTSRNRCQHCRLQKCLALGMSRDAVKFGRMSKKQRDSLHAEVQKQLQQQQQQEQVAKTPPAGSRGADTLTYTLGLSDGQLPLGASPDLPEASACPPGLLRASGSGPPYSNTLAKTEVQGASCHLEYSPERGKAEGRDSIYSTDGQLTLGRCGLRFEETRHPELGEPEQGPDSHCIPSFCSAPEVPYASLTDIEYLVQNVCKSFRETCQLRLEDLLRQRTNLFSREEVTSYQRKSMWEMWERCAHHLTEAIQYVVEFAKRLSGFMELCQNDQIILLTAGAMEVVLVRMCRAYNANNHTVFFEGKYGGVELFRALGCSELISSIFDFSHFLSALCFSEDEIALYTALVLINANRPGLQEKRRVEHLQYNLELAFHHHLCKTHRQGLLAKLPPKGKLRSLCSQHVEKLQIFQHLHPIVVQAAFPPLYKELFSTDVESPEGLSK
Description: Inverse agonist activity at mouse ROR gamma expressed in CHO-K1 cells after 24 hrs by luciferase reporter gene assay relative to vehicle control response

[2] = molecular target: T2, Nuclear receptor ROR-alpha (Mus musculus) (UniProt P51448); details: CHO-K1
T2 sequence (whole entry): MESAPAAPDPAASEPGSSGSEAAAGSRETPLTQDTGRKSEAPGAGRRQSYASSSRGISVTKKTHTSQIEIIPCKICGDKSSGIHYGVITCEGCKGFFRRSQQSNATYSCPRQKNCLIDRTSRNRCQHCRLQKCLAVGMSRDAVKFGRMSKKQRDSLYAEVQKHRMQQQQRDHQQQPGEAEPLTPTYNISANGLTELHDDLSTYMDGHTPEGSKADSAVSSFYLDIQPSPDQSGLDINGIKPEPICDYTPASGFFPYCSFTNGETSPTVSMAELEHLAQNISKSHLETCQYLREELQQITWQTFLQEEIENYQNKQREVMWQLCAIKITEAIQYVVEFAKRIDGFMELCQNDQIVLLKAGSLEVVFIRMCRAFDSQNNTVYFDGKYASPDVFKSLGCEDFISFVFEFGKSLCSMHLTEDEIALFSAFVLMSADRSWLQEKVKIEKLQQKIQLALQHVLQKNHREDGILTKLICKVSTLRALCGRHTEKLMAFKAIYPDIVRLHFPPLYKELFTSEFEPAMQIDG
Description: Inverse agonist activity at mouse ROR alpha expressed in CHO-K1 cells after 24 hrs by luciferase reporter gene assay relative to vehicle control response

[3] = molecular target: T3, Oxysterols receptor LXR-alpha (Homo sapiens) (UniProt Q13133); assay: Activation of GAL4-fused LXR alpha (unknown origin) expressed in HEK293T cells after 20 hrs relative to T0901317; format: cell-based; details: HEK-293T
T3 sequence (whole entry): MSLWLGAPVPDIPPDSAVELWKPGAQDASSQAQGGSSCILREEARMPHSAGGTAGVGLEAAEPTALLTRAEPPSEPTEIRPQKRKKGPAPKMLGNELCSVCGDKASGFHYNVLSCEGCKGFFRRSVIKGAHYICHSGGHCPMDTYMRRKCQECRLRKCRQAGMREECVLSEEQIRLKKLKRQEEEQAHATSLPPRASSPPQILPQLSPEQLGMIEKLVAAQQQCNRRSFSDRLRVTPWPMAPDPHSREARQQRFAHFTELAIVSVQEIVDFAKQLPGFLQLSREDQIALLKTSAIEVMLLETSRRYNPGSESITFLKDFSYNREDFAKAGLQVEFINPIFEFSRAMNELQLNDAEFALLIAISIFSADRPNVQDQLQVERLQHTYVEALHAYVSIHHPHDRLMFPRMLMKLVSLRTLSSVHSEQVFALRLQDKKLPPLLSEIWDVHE

[4] = molecular target: T4, Nuclear receptor ROR-beta (Homo sapiens) (UniProt Q92753); assay: Inhibition of ROR beta (unknown origin)-mediated transactivation
T4 sequence (whole entry): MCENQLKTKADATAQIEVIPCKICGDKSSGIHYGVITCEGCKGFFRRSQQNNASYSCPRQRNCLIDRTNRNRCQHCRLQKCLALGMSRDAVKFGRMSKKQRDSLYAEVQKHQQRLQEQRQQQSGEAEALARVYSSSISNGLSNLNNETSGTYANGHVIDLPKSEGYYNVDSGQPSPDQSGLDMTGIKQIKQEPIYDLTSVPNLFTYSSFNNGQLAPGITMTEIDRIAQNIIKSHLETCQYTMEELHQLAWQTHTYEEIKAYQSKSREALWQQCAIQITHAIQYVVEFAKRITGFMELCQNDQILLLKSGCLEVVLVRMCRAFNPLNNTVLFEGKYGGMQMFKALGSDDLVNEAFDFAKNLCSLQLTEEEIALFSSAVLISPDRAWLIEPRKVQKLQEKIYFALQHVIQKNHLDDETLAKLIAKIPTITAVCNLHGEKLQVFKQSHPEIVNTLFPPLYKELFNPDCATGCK

[5] = molecular target: T5, Nuclear receptor ROR-gamma (Homo sapiens, UniProt P51449); assay: Displacement of 25-[3H]hydroxycholesterol from GST-tagged ROR gamma ligand binding domain (unknown origin) expressed in Escherichia coli BL21 gold (DE3) cells by radioligand competition assay
T5 sequence (P51449 whole entry): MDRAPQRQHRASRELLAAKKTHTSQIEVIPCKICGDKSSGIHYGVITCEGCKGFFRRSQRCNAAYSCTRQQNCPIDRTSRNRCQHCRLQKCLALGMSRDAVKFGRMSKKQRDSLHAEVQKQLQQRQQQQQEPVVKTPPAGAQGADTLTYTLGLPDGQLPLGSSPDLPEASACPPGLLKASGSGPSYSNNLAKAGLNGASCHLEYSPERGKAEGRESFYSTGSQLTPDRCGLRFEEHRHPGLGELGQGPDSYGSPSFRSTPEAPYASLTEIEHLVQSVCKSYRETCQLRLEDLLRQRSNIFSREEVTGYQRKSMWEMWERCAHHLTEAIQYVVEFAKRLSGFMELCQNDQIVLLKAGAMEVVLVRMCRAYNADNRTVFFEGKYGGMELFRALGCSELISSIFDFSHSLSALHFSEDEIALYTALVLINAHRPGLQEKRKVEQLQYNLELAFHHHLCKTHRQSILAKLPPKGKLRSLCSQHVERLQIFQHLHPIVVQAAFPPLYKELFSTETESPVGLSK

[6] = molecular target: T5, Nuclear receptor ROR-gamma; assay: Agonist activity at human His6-tagged ROR gamma ligand binding domain (residues 262 to 507) expressed in Escherichia coli BL21 (DE3) cells assessed as increase in recruitment of coactivator peptide by AlphaScreen biochemical assay; format: functional
[7] = molecular target: T5, Nuclear receptor ROR-gamma; assay: Displacement of 25-[3H]hydroxycholesterol from ROR gamma (unknown origin) by competitive binding assay
[8] = Plasma concentration in mouse at 10 mg/kg, ip administered as single dose after 1 hr; format: ADME, organism-based; set-up: dose 10 mg/kg, route intraperitoneal
[9] = Plasma concentration in mouse at 10 mg/kg, ip administered as single dose after 8 hrs; format: ADME, organism-based; set-up: dose 10 mg/kg, route intraperitoneal
[10] = molecular target: T6, Estrogen-related receptor gamma (Homo sapiens, UniProt P62508); assay: Binding affinity to human ERR gamma
T6 sequence (P62508 whole entry): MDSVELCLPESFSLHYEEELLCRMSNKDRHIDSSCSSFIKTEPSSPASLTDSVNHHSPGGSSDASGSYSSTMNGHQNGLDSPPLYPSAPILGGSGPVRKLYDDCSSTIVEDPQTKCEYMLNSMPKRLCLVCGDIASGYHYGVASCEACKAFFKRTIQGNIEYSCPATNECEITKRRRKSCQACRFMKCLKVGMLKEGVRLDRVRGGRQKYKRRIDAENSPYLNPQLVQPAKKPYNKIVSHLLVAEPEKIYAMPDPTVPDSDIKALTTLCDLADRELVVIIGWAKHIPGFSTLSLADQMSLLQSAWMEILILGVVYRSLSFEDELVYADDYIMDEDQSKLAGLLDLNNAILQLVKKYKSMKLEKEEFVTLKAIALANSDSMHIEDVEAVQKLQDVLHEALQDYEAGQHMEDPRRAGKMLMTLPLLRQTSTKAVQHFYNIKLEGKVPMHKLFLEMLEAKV

[11] = molecular target: T5, Nuclear receptor ROR-gamma; assay: Activity at human His(GST)-tagged ROR gamma LBD expressed in Escherichia coli BL21 (DE3) cells assessed as receptor-biotinylated SRC1 peptide interaction by TR-FRET assay; format: functional

SMILES: Clc1ccc(CS/C(Cn2cncn2)=N\c2ccc(Cl)cc2Cl)cc1
IC20 [1]: 3 µM | IC20 [2]: 10 µM

Activity [3]: < 5%
SMILES: OC(c1ccc(-c2ccc(CN3CCN(Cc4ccncc4)CC3)cc2)c(F)c1)(C(F)(F)F)C(F)(F)F

Imax [4]: 70%
SMILES: CC1=C(/C=C/C(C)=C/C=C/C(C)=C/C(=O)O)C(C)(C)CCC1

SMILES: CC(C)CCC[C@@H](C)[C@H]1CC[C@H]2[C@@H]3[C@@H](O)C=C4C[C@@H](O)CC[C@]4(C)[C@H]3CC[C@]12C
Ki [5]: 10 nM

SMILES: CC(C)CCC[C@@H](C)[C@H]1CC[C@H]2[C@@H]3[C@H](O)C=C4C[C@@H](O)CC[C@]4(C)[C@H]3CC[C@]12C
Ki [5]: 10 nM

SMILES: CC(C)CC[C@H](O)[C@@H](C)[C@H]1CC[C@H]2[C@@H]3CC=C4C[C@@H](O)CC[C@]4(C)[C@H]3CC[C@]12C
EC50 [6]: 20 nM

SMILES: CCCOC/C(=N\c1ccc(Cl)cc1C(F)(F)F)n1ccnc1
IC20 [2]: 10 µM

SMILES: CCC(C)c1cc(C(C)(C)c2ccc(O)c(C(C)CC)c2)ccc1O (stereo not given)
IC50 [7]: 150 nM

concentration at 1 h [8]: 3.6 µM | concentration at 8 h [9]: > 800 nM
SMILES: O=C(Nc1ccc(C(O)(C(F)(F)F)C(F)(F)F)cc1)c1ccc(C(F)(F)F)cc1

SMILES: CC(C)(c1ccc(O)cc1)c1ccc(O)cc1 [BISPHENOL A]
Kd [10]: 5.5 nM

SMILES: CC(c1ccccc1)(c1ccc(O)cc1)c1ccc(O)cc1
IC50 [7]: > 10000 nM

SMILES: CC(C)CCC[C@@](C)(O)[C@H]1CC[C@H]2[C@@H]3CC=C4C[C@@H](O)CC[C@]4(C)[C@H]3CC[C@@]21C
EC50 [6]: 20 nM

EC50 [11]: 11 nM
SMILES: O=C(O)c1ccc(-c2nn(C(=O)c3c(Cl)cccc3Cl)c3ccccc23)cc1
